{"source": "patent US4540697A", "about": "“Aminopropanol derivatives of 2-hydroxy-β-phenyl-propiophenones, pharmaceutical compositions and use” (priority 1984, dated 1985)", "note": "Where a name gives a salt, the structure may show the parent alone.", "data": [{"system": "isolated left atrium of male guineapigs", "experiment": "Antiarrhythmic action on the isolated guineapig atrium (drop in maximum rhythmicity)", "design": "species or system guineapig (strain: Pirbright white)", "details": "Cavia porcellus, Tyrode's solution pH 7.4, 32° C., read-out: Maximum rhythmicity (ED 50%): concentration which causes a 50% drop in the maximum rhythmicity", "method": "The antiarrhythmic activity of the compounds according to the invention was determined on the isolated left atrium of male guineapigs (strain: Pirbright white, weight: 350 to 450 g).\nAtria suspended in an organ bath (volume: 125 ml) with carbogen-saturated Tyrode's solution (pH 7.4, 32° C.) were pre-loaded with 1.0 g and subjected to square-wave pulses having a base rhythm of 1 Hz and twice the excitation threshold (rheobase: 0.2-1.4 V, chronaxia: 0.3-0.5 msec).\nThe frequency (Hz) up to which contraction follows each stimulus (maximum rhythmicity, MR) was determined, by automatically and continuously increasing the frequency, as a criterion of the antiarrhythmic activity. The concentration which causes a drop in the maximum rhythmicity of 50% (EC 50%) was calculated from the linear relationship between the logarithm of the concentration (mg/l) and the relative drop in the maximum rhythmicity (%).\n(§1) The known antiarrhythmic drug propafenone [2-(2-hydroxy-3-propylamino-propoxy)-3-phenyl-propiophenone hydrochloride]was used as the comparative substance.", "units": {"EC50": "µg/mL"}, "values": [{"compound": "C#CC(C)NCC(O)COc1ccccc1C(=O)CCc1ccccc1", "note": "(stereo not drawn) [Example 6, 2-[2'-Hydroxy-3'-(1-butyn-3-ylamino)-propoxy]-β-phenyl-propiophenone hydrochloride]", "EC50": 1.71}, {"compound": "C#CC(C)(C)NCC(O)COc1ccccc1C(=O)CCc1ccccc1", "note": "(stereo not drawn) [Example 7, 2-[2'-Hydroxy-3'-(3-methyl-1-butyn-3-ylamino)-propoxy]-β-phenyl-propiophenone hydrochloride]", "EC50": 1.66}, {"compound": "CC(CNCC(O)COc1ccccc1C(=O)CCc1ccccc1)c1ccccc1", "note": "(stereo not drawn) [Example 12, 2-[2'-Hydroxy-3'-(2-phenylpropylamino)-propoxy]-β-phenyl-propiophenone hydrochloride]", "EC50": 1.25}, {"compound": "COc1ccc(CCNCC(O)COc2ccccc2C(=O)CCc2ccccc2)cc1OC", "note": "(stereo not drawn) [Example 14, 2-[2'-Hydroxy-3'-(2-(3,4-dimethoxyphenyl)-ethylamino)propoxy]-β-phenyl-propiophenone hydrochloride]", "EC50": 2.17}, {"compound": "COc1ccc(CCN(C)CC(O)COc2ccccc2C(=O)CCc2ccccc2)cc1OC", "note": "(stereo not drawn) [Example 15, 2-[2'-Hydroxy-3'-[N-methyl-N-(2-(3,4-dimethoxyphenyl)ethylamino)]-propoxy]-β-phenyl-propiophenone hydrochloride]", "EC50": 0.728}, {"compound": "CN(C)CC(O)COc1ccccc1C(=O)CCc1ccccc1", "note": "(stereo not drawn) [Example 18, 2-[2'-Hydroxy-3'-(N,N-dimethylamino)-propoxy]-β-phenyl-propiophenone hydrochloride]", "EC50": 1.3}, {"compound": "O=C(CCc1ccccc1)c1ccccc1OCC(O)CN1CCC(c2ccccc2)C1", "note": "(stereo not drawn) [Example 22, 2-[2'-Hydroxy-3'-(3-phenyl-pyrrolidino)-propoxy]-β-phenyl-propiophenone hydrochloride]", "EC50": 1.21}, {"compound": "CCCNCC(O)COc1ccccc1C(=O)CCc1ccccc1OC", "note": "(stereo not drawn) [Example 29, 2-(2'-Hydroxy-3'-n-propylamino-propoxy)-β-(2-methoxyphenyl)-propiophenone hydrochloride]", "EC50": 1.71}, {"compound": "CCCN(CCC)CC(O)COc1ccc(C)cc1C(=O)CCc1ccc(Cl)cc1", "note": "(stereo not drawn) [Example 46, 2-(2'-Hydroxy-3'-di-n-propylamino-propoxy)-5-methyl-β-(4-chlorophenyl)-propiophenone hydrochloride]", "EC50": 0.778}, {"compound": "CCCN(CCC)CC(O)COc1ccc(Cl)cc1C(=O)CCc1ccc(F)cc1", "note": "(stereo not drawn) [Example 47, 2-(2'-Hydroxy-3'-di-n-propylamino-propoxy)-5-chloro-β-(p-fluorophenyl)-propiophenone hydrochloride]", "EC50": 1.45}, {"compound": "CCCNCC(O)COc1ccc(C)cc1C(=O)CCc1ccc(OC)c(OC)c1", "note": "(stereo not drawn) [Example 48, 2-(2'-Hydroxy-3'-n-propylamino-propoxy)-5-methyl-β-(3,4-dimethoxyphenyl)-propiophenone hydrochloride]", "EC50": 0.923}, {"compound": "CC(C)N(CC(O)COc1ccccc1C(=O)CCc1ccc(N(C)C)cc1)C(C)C", "note": "(stereo not drawn) [Example 64, 2-[2'-Hydroxy-3'-(N,N-diisopropylamino)-propoxy]-β-(4-dimethylaminophenyl)-propiophenone hydrochloride]", "EC50": 1.36}, {"compound": "CCCNCC(O)COc1ccccc1C(=O)CCc1ccccc1", "note": "(stereo not drawn) [Propafenone, 2-(2'-hydroxy-3'-n-propylamino-propoxy)-β-phenyl-propiophenone hydrochloride, reference compound]", "EC50": 2.02}]}, {"system": "aconitine arrhythmia in rats", "experiment": "Antiarrhythmic action on aconitine arrhythmia in rats", "format": "in vivo, rat (strain: Sprague Dawley)", "details": "Rattus norvegicus, iv, 1 h, intravenous administration (footnote 2), aconitine infused 60 minutes after substance, read-out: ED 50%: dose which causes a 50% extension in the period of aconitine infusion", "method": "(§2) Moreover, the novel compounds were administered orally or intravenously to male rats (strain: Sprague Dawley, weight: 200-230 g) to determine the antiarrhythmic activity. 45 minutes later, the animals were anesthetized by intraperitoneal administration of 100 mg/kg of thiobutabarbital sodium. Aconitine served as the arrhythmogenic substance, and was infused intravenously at a dosage rate of 0.005 mg/kg/minute 60 minutes after administration of the substance. In untreated animals (n=52), arrhythmias appeared in the ECG after 2.74±0.07 minutes. These arrhythmias can be delayed by antiarrhythmic drugs, as a function of the dose.\n(§3) The dose which extends the infusion period by 50% (ED 50%) was determined from the linear relationship between the logarithm of the dose (mg/kg) of the trial substance and the relative extension of the period of aconitine infusion (Δ%).\nas §1", "units": {"ED50": "mg/kg"}, "values": [{"compound": "CCCNCC(O)COc1ccc(O)cc1C(=O)CCc1ccccc1", "note": "(stereo not drawn) [Example 71, 2-(2'-Hydroxy-3'-n-propylamino-propoxy)-5-hydroxy-β-phenyl-propiophenone hydrochloride]", "ED50": 0.51}]}, {"system": "aconitine arrhythmia in rats", "experiment": "Antiarrhythmic action on aconitine arrhythmia in rats", "format": "in vivo, rat (strain: Sprague Dawley)", "details": "Rattus norvegicus, po, 1 h, peroral administration, aconitine infused 60 minutes after substance, read-out: ED 50%: dose which causes a 50% extension in the period of aconitine infusion", "method": "as §2, §3, §1", "units": {"ED50": "mg/kg"}, "values": [{"compound": "O=C(CCc1ccccc1)c1ccccc1OCC(O)CNC1CCCCC1", "note": "(stereo not drawn) [Example 4, 2-(2'-Hydroxy-3'-cyclohexylamino-propoxy)-β-phenylpropiophenone hydrochloride]", "ED50": 46.4}, {"compound": "CC(C)(O)CCNCC(O)COc1ccccc1C(=O)CCc1ccccc1", "note": "(stereo not drawn) [Example 8, 2-[2'-Hydroxy-3'-(3-hydroxy-3-methyl-butylamino)-propoxy]-β-phenyl-propiophenone hydrochloride]", "ED50": 21}, {"compound": "CN(C)CCNCC(O)COc1ccccc1C(=O)CCc1ccccc1", "note": "(stereo not drawn) [Example 16, 2-[2'-Hydroxy-3'-(2-dimethylaminoethylamino)-propoxy]-β-phenyl-propiophenone bis-hydrochloride]", "ED50": 29}, {"compound": "CCCNCC(O)COc1ccccc1C(=O)CCc1ccc(OC)c(OC)c1", "note": "(stereo not drawn) [Example 36, 2-(2'-Hydroxy-3'-n-propylamino-propoxy)-β-(3,4-dimethoxyphenyl)-propiophenone hydrochloride]", "ED50": 6.92}, {"compound": "CCCNCC(O)COc1ccc(Cl)cc1C(=O)CCc1ccccc1", "note": "(stereo not drawn) [Example 37, 2-(2'-Hydroxy-3'-n-propylamino-propoxy)-5-chloro-β-phenyl-propiophenone hydrochloride]", "ED50": 46.4}, {"compound": "COCC(C)NCC(O)COc1ccc(Cl)cc1C(=O)CCc1ccccc1", "note": "(stereo not drawn) [Example 38, 2-[2'-Hydroxy-3'-(3-methoxy-prop-2-ylamino)-propoxy]-5-chloro-β-phenyl-propiophenone hydrochloride]", "ED50": 21.5}, {"compound": "O=C(CCc1ccccc1)c1cc(Cl)ccc1OCC(O)CN1CCCCC1", "note": "(stereo not drawn) [Example 40, 2-(2'-Hydroxy-3'-piperidino-propoxy)-5-chloro-β-phenyl-propiophenone]", "ED50": 46.4}, {"compound": "CC(C)NCC(O)COc1ccccc1C(=O)CCc1ccc(N(C)C)cc1", "note": "(stereo not drawn) [Example 56, 2-(2'-Hydroxy-3'-isopropylamino-propoxy)-β-(4-dimethylaminophenyl)-propiophenone hydrochloride]", "ED50": 3.4}, {"compound": "CCCNCC(O)COc1ccccc1C(=O)CCc1ccc(N(CC)CC)cc1", "note": "(stereo not drawn) [Example 61, 2-(2'-Hydroxy-3'-n-propylamino-propoxy)-β-(4-diethylaminophenyl)-propiophenone hydrochloride]", "ED50": 1.9}, {"compound": "CCCNCC(O)COc1ccc(Cl)cc1C(=O)CCc1ccc(N(C)C)cc1", "note": "(stereo not drawn) [Example 62, 2-(2'-Hydroxy-3'-n-propylamino-propoxy)-5-chloro-β-(4-dimethylaminophenyl)-propiophenone hydrochloride]", "ED50": 21.5}, {"compound": "CCCNCC(O)COc1ccc(C)cc1C(=O)CCc1ccc(N(C)C)cc1", "note": "(stereo not drawn) [Example 63, 2-(2'-Hydroxy-3'-n-propylamino-propoxy)-5-methyl-β-(4-dimethylaminophenyl)-propiophenone hydrochloride]", "ED50": 3.03}, {"compound": "CC(C)N(CC(O)COc1ccc(Cl)cc1C(=O)CCc1ccc(N(C)C)cc1)C(C)C", "note": "(stereo not drawn) [Example 66, 2-[2'-Hydroxy-3'-(N,N-diisopropylamino)-propoxy]-5-chloro-β-(4-dimethylaminophenyl)-propiophenone hydrochloride]", "ED50": 21.5}, {"compound": "Cc1ccc(OCC(O)CN2CCN(C)CC2)c(C(=O)CCc2ccc(N(C)C)cc2)c1", "note": "(stereo not drawn) [Example 68, 2-[2'-Hydroxy-3'-(4-methyl-piperazin-1-yl)-propoxy]-5-methyl-β-(4-dimethylaminophenyl)-propiophenone hydrochloride]", "ED50": 46.4}, {"compound": "COCC(C)NCC(O)COc1ccc(C)cc1C(=O)CCc1ccc(N(C)C)cc1", "note": "(stereo not drawn) [Example 69, 2-[2'-Hydroxy-3'-(3-methoxy-prop-2-ylamino)-propoxy]-5-methyl-β-(4-dimethylaminophenyl)-propiophenone hydrochloride]", "ED50": 31.6}]}, {"system": "aconitine arrhythmia in rats", "experiment": "Antiarrhythmic action on aconitine arrhythmia in rats", "format": "in vivo, rat (strain: Sprague Dawley)", "details": "peroral administration, aconitine infused 60 minutes after substance", "method": "as §2, §3, §1", "units": {"ED 50%: dose which causes a 50% extension in the period of aconitine infusion": "mg/kg"}, "values": [{"compound": "2-[2'-Hydroxy-3'-(2-hydroxyethylamino)-propoxy]-β-(dimethylaminophenyl)-propiophenone hydrogen oxalate [Example 59]", "ED 50%: dose which causes a 50% extension in the period of aconitine infusion": 21.5}]}]}
